For this assay, the system named is 855422-203-R-J1-PDC complex spheroid viability. The assay is described as follows: Anticancer human tumor 855422-203-R-J1-PDC patient-derived bladder carcinoma cell line growth inhibition [POLQ]. The following applies: for viability, T/C: stronger effect = lower value. The protocol: Multicellular complex tumor spheroid response to Polymerase (POL) inhibitors (novobiocin, ART-558, RP6685) in combination with a variety of drugs and investigational agents in selected tumor cell lines
The POL inhibitors (novobiocin, ART-558, and RP6685) were evaluated both individually and in combination with standard of care and investigational anticancer small molecules within a complex spheroid model of solid tumors. . Complex spheroids include a stromal component modeled by human endothelial cells (HUVEC) and fibroblasts modeled by human mesenchymal stem cells (MSCs). The concentration ranges selected for each drug and investigational agent were based upon clinically achievable concentrations if the clinical Cmax of the agent was known.
Compounds. The drugs and investigational agents: novobiocin (NSC847541), ART-558 (NSC835418), RP-6685 (NSC848927), peposertib (NSC802822), ceralasertib (NSC780249), elimusertib (NSC800525), camonsertib (NSC841442), AZD-1390 (NSC803789), olaparib (NSC753686), talazoparib (NSC767125), rucaparib (NSC756644), sotorasib (NSC818433), MRTX-1133 (NSC836407), SN-38 (NSC673596), topotecan (NSC609699), epotoside (NSC141540), doxorubicin (NSC123127), gemcitabine (NSC613327), 5-fluorouracil (NSC19893), paclitaxel (NSC125973), vemurafenib (NSC761431), MSA-2 (NSC828583), SN-011 (NSC837082), adavosertib (NSC754352), prexasertib (NSC758257), carboplatin (NSC241240) and oxaliplatin (NSC266046), were obtained from the National Cancer Institute (NCI) Developmental Therapeutics Program Chemical Repository (21). The FDA-approved anticancer drug set is available from the Developmental Therapeutics Program at https://dtp.cancer.gov/organization/dscb/obtaining/. […] The stock solutions were prepared in dimethyl sulfoxide (DMSO, Sigma-Aldrich, St. Louis, MO, cat. D2650), except for the platinum compounds which were prepared in saline (Quality Biological, Gaithersburg, MD, cat. 114-055-101), at 800-fold the tested concentration and stored at -70 degrees C prior to their use. All drugs and investigational agents were tested over a range starting from a high concentration at or near the clinical Cmax and decreasing in half-log increments. If the clinical Cmax for an agent had not been determined, the highest concentration tested was 10 microM, except for SN-38, which was tested at a high concentration of 1 microM.
Cell Culture. All cells were maintained in an incubator at 37 degrees C and 5% CO2 with 95% humidity. The PDC lines were cultured according to standard operating procedures established by the NCI PDMR (https://pdmr.cancer.gov). Table 3 of the manuscript, lists the cell lines along with the number of the three cell types plated to form the mct-spheroids and media for tumor cell growth. After thawing, all PDC lines, except 997537-175-T-J1-PDC and 415267-285-R-J2-PDC, were cultured in Matrigel-coated flasks prepared with a working solution of 1X Ham's F-12 nutrient mix, without supplementation (Thermo Fisher Scientific, cat. 11765054), 100 U/mL penicillin-streptomycin (Thermo Fisher Scientific, cat. 15140122), and 2.5% Matrigel (Corning Inc., Corning, NY, cat. 354248) for the first three passages. The two PDC lines 997537-175-T-J1-PDC and 415267-285-R-J2-PDC were cultured on uncoated flasks. The 857933-349-R-J2-PDC line was cultured in 6C/Colon 1B media containing advanced DMEM/F-12 (Thermo Fisher Scientific, cat. 12634028), 10 mM HEPES (Thermo Fisher Scientific, cat. 15630080), 1X GlutaMAX supplement (Thermo Fisher Scientific, cat. 35050061), 0.1 mg/mL primocin (InvivoGen, San Diego, CA, cat. ant-pm-2), 10% defined fetal bovine serum, heat inactivated (HyClone Laboratories Inc., Logan, UT, cat. SH30070.03HI), 50% L-WRN conditioned media (ATCC, cat. CRL-3276), 1.25 mM N-Acetyl-L-cysteine (Sigma-Aldrich, cat. A9165), 10 mM nicotinamide (Sigma-Aldrich, cat. N0636), 1X B-27 supplement (Thermo Fisher Scientific, cat. 17504044), 1X N-2 supplement (Thermo Fisher Scientific, cat. […]

Values joined by “and” are separate entries in the source; they are usually repeats but may differ in a detail not shown here. Equal entries are not always repeated.
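Note: spheroids exposed to compounds for seven days before readout.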

`C#Cc1c(F)ccc2cc(O)cc(-c3ncc4c(N5CC6CCC(C5)N6)nc(OCC56CCCN5CC(F)C6)nc4c3F)c12` (stereo unspecified): the viability, T/C (compound 0.0316 µM) was 120% and 105% and 97.1%; the viability, T/C (compound 0.1 µM) is 106% and 100% and 107%; the viability, T/C (compound 0.316 µM) was 87.3% and 94.5% and 105%; the viability, T/C (compound 1 µM) was 98.4% (2×) and 94.2%; the viability, T/C (compound 3.16 µM) is 97.4% and 109% and 119%; the viability, T/C (compound 10 µM) was 104% and 98% and 121%. The half-inhibitory concentration (IC50) (curve of compound) was greater than 10 µM.

In the case of `C=CC(=O)N1CCN(c2nc(=O)n(-c3c(C)ccnc3C(C)C)c3nc(-c4c(O)cccc4F)c(F)cc23)C(C)C1` (stereo unspecified), the viability, T/C was 106% and 101% and 103% (compound 0.0316 µM); 89% and 126% and 115% (compound 0.1 µM); 117% and 111% and 114% (compound 0.316 µM); 101% and 130% and 102% (compound 1 µM); 129% and 144% and 132% (compound 3.16 µM); 127% and 135% and 113% (compound 10 µM). Further, under “curve of compound”, the concentration for half-maximal inhibition (IC50) was greater than 10 µM.

In the case of `CC1COCCN1c1cc(C2(O)CC3CCC(C2)O3)c2cnn(-c3ccn[nH]3)c2n1` (stereo unspecified), the viability, T/C is, setting by setting: (compound 0.0316 µM) 98.5% and 101% and 111%; (compound 0.1 µM) 49.5% and 43.5% and 74.9%; (compound 0.316 µM) 15.2% and 14.2% and 20.3%; (compound 1 µM) 10.6% and 9.31% and 13.1%; (compound 3.16 µM) 6.4% and 7.44% and 9.6%; (compound 10 µM) 3.63% and 5.73% and 6.18%. Also, the 50% inhibitory concentration (IC50) (curve of compound) is 0.0982 µM and 0.0876 µM and 0.17 µM.

Regarding `CCc1cc2c(N3CCc4c(cc(Cn5ccnc5)cc4-c4cn(C)nc4C(F)(F)F)C3=O)cc(C)nc2c(OC)n1`, the viability, T/C is, setting by setting: (compound 0.0316 µM) 89.8% and 99.4% and 115%; (compound 0.1 µM) 81.6% and 103% and 101%; (compound 0.316 µM) 74.5% and 132% and 120%; (compound 1 µM) 62.8% and 85.8% and 94.5%; (compound 3.16 µM) 49.1% and 62% and 75.6%; (compound 10 µM) 26.1% and 50.8% and 38.6%. Besides, the IC50 (curve of compound) was 2.62 µM and > 10 µM and 6.96 µM.

With `CCc1cc2c(N3CCc4c(cc(Cn5ccnc5)cc4-c4cn(C)nc4C(F)(F)F)C3=O)ccnc2c(OC)n1`, the viability, T/C by setting is: (compound 0.0316 µM) 83.3% and 126% and 119%; (compound 0.1 µM) 84.9% and 133% and 116%; (compound 0.316 µM) 73.8% and 136% and 139%; (compound 1 µM) 74.3% and 100% and 104%; (compound 3.16 µM) 47.2% and 73.1% and 78.9%; (compound 10 µM) 32.6% and 47.8% and 46.6%. Also, the IC50 (curve of compound) was 2.87 µM and 9.66 µM and 8.96 µM.

In the case of `COc1cc2cc(C(=O)CCC(=O)O)sc2cc1OC`, the viability, T/C by setting is: (compound 0.0316 µM) 93.5% and 102% and 106%; (compound 0.1 µM) 128% and 88.2% and 104%; (compound 0.316 µM) 98.3% and 108% and 107%; (compound 1 µM) 97.8% and 87.2% and 98.9%; (compound 3.16 µM) 111% (2×) and 106%; (compound 10 µM) 112% and 119% and 102%. Besides, the IC50 (curve of compound) is greater than 10 µM.

Consider `O=C(Nc1ccc(O)c(NS(=O)(=O)c2ccc(F)cc2)c1)c1ccc(-c2ccccc2)cc1`, for which the viability, T/C was 106% and 92.6% and 110% (compound 0.0316 µM); 118% and 99.2% and 113% (compound 0.1 µM); 98.8% and 110% and 113% (compound 0.316 µM); 112% and 108% and 97.7% (compound 1 µM); 99.4% and 106% and 92.8% (compound 3.16 µM); 74% and 70.5% and 45.6% (compound 10 µM). Also, the IC50 (curve of compound) was > 10 µM and 9.08 µM.

On to `O=C(c1cc(Cc2n[nH]c(=O)c3ccccc23)ccc1F)N1CCN(C(=O)C2CC2)CC1` + COC1C(OC(N)=O)C(O)C(Oc2ccc3c(O)c(NC(=O)c4ccc(O)c(CC=C(C)C)c4)c(=O)oc3c2C)OC1(C)C, for which the IC50 runs as follows: (curve of first compound, second compound 0.0316 µM) greater than 10 µM; (curve of first compound, second compound 0.1 µM) greater than 10 µM; (curve of first compound, second compound 0.316 µM) greater than 10 µM; (curve of first compound, second compound 1 µM) greater than 10 µM; (curve of first compound, second compound 3.16 µM) greater than 10 µM; (curve of first compound, second compound 10 µM) greater than 10 µM. For the same compound, the viability, T/C by setting is: (second compound 0.0316 µM, first compound 0.0316 µM) 107%; (second compound 0.0316 µM, first compound 0.1 µM) 107%; (second compound 0.0316 µM, first compound 0.316 µM) 122%; (second compound 0.0316 µM, first compound 1 µM) 90.8%; (second compound 0.0316 µM, first compound 3.16 µM) 95.6%; (second compound 0.0316 µM, first compound 10 µM) 78.8%. Also, the viability, T/C is 93.3% (second compound 0.1 µM, first compound 0.0316 µM); 111% (second compound 0.1 µM, first compound 0.1 µM); 109% (second compound 0.1 µM, first compound 0.316 µM); 104% (second compound 0.1 µM, first compound 1 µM); 93.8% (second compound 0.1 µM, first compound 3.16 µM); 83.7% (second compound 0.1 µM, first compound 10 µM). Besides, the viability, T/C runs as follows: (second compound 0.316 µM, first compound 0.0316 µM) 95.9%; (second compound 0.316 µM, first compound 0.1 µM) 105%; (second compound 0.316 µM, first compound 0.316 µM) 102%; (second compound 0.316 µM, first compound 1 µM) 114%; (second compound 0.316 µM, first compound 3.16 µM) 101%; (second compound 0.316 µM, first compound 10 µM) 67.2%. Also, the viability, T/C is, setting by setting: (second compound 1 µM, first compound 0.0316 µM) 108%; (second compound 1 µM, first compound 0.1 µM) 101%; (second compound 1 µM, first compound 0.316 µM) 95.5%; (second compound 1 µM, first compound 1 µM) 118%; (second compound 1 µM, first compound 3.16 µM) 95.8%; (second compound 1 µM, first compound 10 µM) 66.9%. Further, the viability, T/C (second compound 3.16 µM, first compound 0.0316 µM) is 111%; the viability, T/C (second compound 3.16 µM, first compound 0.1 µM) is 90.8%; the viability, T/C (second compound 3.16 µM, first compound 0.316 µM) was 106%; the viability, T/C (second compound 3.16 µM, first compound 1 µM) is 105%; the viability, T/C (second compound 3.16 µM, first compound 3.16 µM) was 91.2%; the viability, T/C (second compound 3.16 µM, first compound 10 µM) is 68.1%. Further, the viability, T/C was 104% (second compound 10 µM, first compound 0.0316 µM); 111% (second compound 10 µM, first compound 0.1 µM); 106% (second compound 10 µM, first compound 0.316 µM); 96.7% (second compound 10 µM, first compound 1 µM); 103% (second compound 10 µM, first compound 3.16 µM); 60.2% (second compound 10 µM, first compound 10 µM).

For orientation: viability, T/C means the result in the treated group divided by that in the control group, in per cent. One may read the IC50 as the midpoint of a concentration-inhibition curve.
